Measurements from PMC12736150 (Pharmaceuticals, 2025).
Where two headings read alike, the source gives them in different places.

Experiments:
in vitro = settings: African green monkey
[1] = system: MPXV strain MOH-NRC-0002/2022, clade II lineage A.2.1; experiment: in vitro; settings: African green monkey, SI (selectivity safety index = CC50/IC50)
[2] = system: MPXV strain MOH-NRC-0002/2022, clade II lineage A.2.1; experiment: microbe, parasite or virus in culture; settings: Monkeypox virus
[3] = system: MPXV strain MOH-NRC-0002/2022, clade II lineage A.2.1
[4] = system: Zr-599 and Liberia strains of MPXV; settings: cited from earlier work
[5] = system: MPXV lineage responsible for the 2022 outbreak; settings: in vivo; cited from earlier work
[6] = system: clade I or clade II MPXV infection; settings: human, in vivo; cited from earlier work

| Compound | CC50 (in vitro) [µM] | selectivity ratio [1] | IC50 ([2]; Vero C1008, 72 h) [µM] | other results |
| --- | --- | --- | --- | --- |
| Nc1nc(NC2CC2)c2ncn([C@H]3C=C[C@@H](CO)C3)c2n1 [Abacavir] | 328 | 5.46 | 60.1 |  |
| Nc1nc2c(ncn2COCCO)c(=O)[nH]1 [Acyclovir] | 332 |  |  |  |
| NC12CC3CC(CC(C3)C1)C2 [Amantadine] | 570 | 15.2 | 37.5 | SI (selectivity safety index = CC50/IC50) ([3]; African green monkey): 15.22 |
| CCN(CC)CCCC(C)Nc1ccnc2cc(Cl)ccc12 (stereo not shown) [Chloroquine] | 253 | 2.47 | 102 |  |
| COC(=O)N[C@H](C(=O)N1CCC[C@H]1c1nc(-c2ccc(-c3ccc(-c4c[nH]c([C@@H]5CCCN5C(=O)[C@@H](NC(=O)OC)C(C)C)n4)cc3)cc2)c[nH]1)C(C)C [Daclatasvir] | 386 | 1.99 | 194 |  |
| C[C@@H]1CCO[C@H]2Cn3cc(C(=O)NCc4ccc(F)cc4F)c(=O)c(O)c3C(=O)N12 [Dolutegravir] | 160 | 7.82 | 20.5 | antiviral activity against MPXV (in words) [3]: moderate antiviral activity |
| C=C1[C@H](CO)[C@@H](O)C[C@@H]1n1cnc2c(=O)[nH]c(N)nc21 [Entecavir] | 336 | 12 | 28.1 | antiviral activity against MPXV (in words) [3]: moderate anti-Mpox activity |
| NC(=O)c1nc(F)c[nH]c1=O [Favipiravir] | 283 | 3.41 | 82.8 |  |
| CCN(CCO)CCCC(C)Nc1ccnc2cc(Cl)ccc12 (stereo not shown) [Hydroxychloroquine] | 296 | 7.41 | 39.9 | antiviral activity against MPXV (in words) [3]: moderate antiviral activity |
| Nc1ccn([C@@H]2CS[C@H](CO)O2)c(=O)n1 [Lamivudine] | 410 |  |  |  |
| CC(C)C(=O)OC[C@H]1O[C@@H](n2ccc(NO)nc2=O)[C@H](O)[C@@H]1O [Molnupiravir] | 111 |  | 5.7 | IC50 [3]: 5.73 µM; antiviral activity against MPXV (in words) [3]: moderate anti-Mpox activity; IC50 [4]: ~5.2 µM |
| Cc1ccnc2c1NC(=O)c1cccnc1N2C1CC1 [Nevirapine] | 277 | 2.61 | 106 |  |
| CCOC(=O)C1=C[C@@H](OC(CC)CC)[C@H](NC(C)=O)[C@@H](N)C1 [Oseltamivir] | 369 | 4.6 | 58.5 | CC50 (Vero-E6 cells; African green monkey): 269 µM |
| Nc1nc2c(ncn2CCC(CO)CO)c(=O)[nH]1 [Penciclovir] | 280 | 3.95 | 70.8 | IC50 ([2]; Vero C1008): 70.9 µM |
| CCC(CC)COC(=O)[C@H](C)N[P@](=O)(OC[C@H]1O[C@@](C#N)(c2ccc3c(N)ncnn23)[C@H](O)[C@@H]1O)Oc1ccccc1 [Remdesivir] | 503 |  | 10 |  |
| NC(=O)c1ncn([C@@H]2O[C@H](CO)[C@@H](O)[C@H]2O)n1 [Ribavirin] | 262 | 1.83 | 144 |  |
| CC(C)OC(=O)[C@H](C)N[P@](=O)(OC[C@H]1O[C@@H](n2ccc(=O)[nH]c2=O)[C@](C)(F)[C@@H]1O)Oc1ccccc1 [Sofosbuvir] | 286 | 0.61 | 470 |  |
| O=C(NN1C(=O)[C@@H]2[C@@H]3C=C[C@@H]([C@H]4C[C@@H]34)[C@@H]2C1=O)c1ccc(C(F)(F)F)cc1 [Tecovirimat] |  |  |  | survival rates [5]: enhanced the survival rates; lesion resolution time [6]: did not reduce lesion resolution time; safety in randomized clinical trials [6]: safe |
| CC(C)[C@H](N)C(=O)OCCOCn1cnc2c(=O)[nH]c(N)nc21 [Valaciclovir] | 404 | 5.42 | 74.4 |  |
| CC(C)[C@H](N)C(=O)OCC(CO)OCn1cnc2c(=O)nc(N)[nH]c21 (stereo partly shown) [Valganciclovir] | 494 | 5.36 | 92 |  |
| COC[C@H]1C[C@@H](c2ncc(-c3ccc4c(c3)COc3cc5c(ccc6nc([C@@H]7CC[C@H](C)N7C(=O)[C@@H](NC(=O)OC)C(C)C)[nH]c65)cc3-4)[nH]2)N(C(=O)[C@H](NC(=O)OC)c2ccccc2)C1 [Velpatasvir] | 316 | 0.95 | 332 |  |
| CC(=O)N[C@H]1[C@H]([C@H](O)[C@H](O)CO)OC(C(=O)O)=C[C@@H]1N=C(N)N [Zanamivir] | 359 | 1.9 | 189 |  |
| Cc1cn([C@H]2C[C@H](N=[N+]=[N-])[C@@H](CO)O2)c(=O)[nH]c1=O [Zidovudine] | 282 | 2.29 | 123 | antiviral activity against MPXV (in words) [3]: limited activity |
| Tenofovir disoproxil |  |  |  | CC50 (Vero-E6 cells): 302 µM; IC50 [3]: 67.2 µM; SI (selectivity safety index = CC50/IC50) [3]: 4.50 |
